# Assay results published in patent US12486269B2 (Aconcagua Bio, Inc., priority 2024, dated 2025).
# Key:
# [1] = target: T1, human calcitonin receptor (CTR) (Homo sapiens, UniProt P30988); assay: Calcitonin Receptor (CTR) cAMP Assay; assay type: cell-based; settings: COS7-human CTR Clone #2 stable cell line, cAMP dynamic 2 kit, 30 min; read-out: Calcitonin Receptor cAMP Stimulation Activity: EC50
# T1 construct: expressed in transfected cells; host or cells: COS-7 (COS7-human CTR Clone #2)
# T1 sequence (P30988 25-474): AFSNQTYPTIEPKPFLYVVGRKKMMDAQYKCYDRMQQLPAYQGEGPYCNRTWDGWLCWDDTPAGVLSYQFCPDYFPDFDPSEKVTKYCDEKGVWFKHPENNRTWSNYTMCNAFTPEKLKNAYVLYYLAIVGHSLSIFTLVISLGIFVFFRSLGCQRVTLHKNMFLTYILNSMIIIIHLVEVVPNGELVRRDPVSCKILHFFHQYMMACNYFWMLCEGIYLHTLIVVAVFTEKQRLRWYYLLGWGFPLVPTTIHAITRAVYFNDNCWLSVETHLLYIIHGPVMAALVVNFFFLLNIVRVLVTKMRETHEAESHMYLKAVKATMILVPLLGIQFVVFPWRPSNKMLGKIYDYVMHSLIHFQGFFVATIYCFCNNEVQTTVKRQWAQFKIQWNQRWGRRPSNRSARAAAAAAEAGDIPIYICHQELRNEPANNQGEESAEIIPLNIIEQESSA
# Method: (§1) After incubation, the cAMP assay signal was generated using cAMP dynamic 2 kit (Revvity, Cat #62AM4PEC). 10 μL cAMP-d2 working solution was added to each well, followed by 10 μL Anti-cAMP antibody-cryptate working solution which was added to each well using CERTUS FLEX LIQUID […]. The samples were then incubated at room temperature for 1 hour protected from light. the fluorescence was read at 665 and 615 nm with Reader PerkinElmer EnVision 2105. % Activity=100−(mean RLU of test sample−mean RLU of positive control)/(mean RLU of vehicle control−mean RLU of positive control)×100 Calcitonin Receptor (CTR) cAMP Assay
# The calcitonin receptor (CTR) belongs to the subfamily of GPCRs known as the secretin or ‘B’ family of GPCRs. Like other class B1 GPCRs, the CT receptor family is canonically coupled to Gs-mediated cAMP production, and measurement of cAMP accumulation has been the primary assay used to determine peptide selectivity and potency.
# (§2) To optimize functional activity directed toward Gαs coupling, COS-7 cells were stably transfected with human calcitonin receptor (CTR) to create COS7-human CTR Clone #2 stable cell line. 100×concentration of compound working solutions were prepared with 4-fold serial dilution in 384-well Echo LDV plate (Labcyte, Cat #LP-0200-BC). 200 nL/well 100×concentration of compound working solutions were moved to 384-well white microplate (Perkin Elmer, Cat #6007680) using Labcyte ECHO550. 1×10^5 cells/mL COS7-human CTR Clone #2 cell suspensions prepared with assay buffer [HBSS containing 20 mM HEPES (Gibco, Cat #15630-080), 0.5 mM IBMX (Sigma, Cat #15879) and 0.1% Casein (Sigma, Cat #C4765)], 20 μL cell suspensions were added to each well of previous generated assay plate which already contains 200 nL compound at 100×concentration using ThermoFisher Multidrop Combi (2000 cells/well). Seal the plate and incubate at 37° C. with 5% CO2 for 30 min.
# as §1, with “control)×100” for “control)×100 Calcitonin Receptor (CTR) cAMP Assay”
# [2] = target: T2, COS-7/AMY3 (human calcitonin receptor (CTR) and RAMP3) (Homo sapiens, UniProt O60896+P30988); assay: Amylin Receptor cAMP Assay II; assay type: cell-based; settings: values marked **: Amylin Receptor cAMP Assay II; COS-7/AMY3 cells, cAMP dynamic 2 kit, 30 min; read-out: Amylin Receptor cAMP Stimulation Activity: EC50
# T2 construct: expressed in transfected cells; host or cells: COS-7
# T2 sequence (O60896 24-148, one chain of several): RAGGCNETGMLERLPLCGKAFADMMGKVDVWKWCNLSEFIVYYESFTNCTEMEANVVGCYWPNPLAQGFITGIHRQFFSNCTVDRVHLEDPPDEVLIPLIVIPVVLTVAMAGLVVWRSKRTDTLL
# Description: AMYRs are heterodimers of the class B calcitonin (CT) G-protein-coupled receptor (CTR) and receptor activity-modifying proteins (RAMPs). All three RAMPs can interact with the CTR and form AMY1, AMY2, AMY3 with RAMP1, RAMP2 and RAMP3, respectively. Like other class B1 GPCRs, the CT receptor family is canonically coupled to Gs-mediated cAMP production, and measurement of cAMP accumulation has been the primary assay used to determine peptide selectivity and potency.
# as §2, with “and RAMP3, simultaneously.” for “to create COS7-human CTR Clone #2 stable cell line.”, “COS-7/AMY3” for “COS7-human CTR Clone #2”
# as §1
EC50 [1],EC50 [2],Compound
16 pM,362 pM,"COc1c(F)ccc2c1CC[C@H]2Nc1nc(C)cc2cc(-c3c4c(nc(CCc5cccc(F)c5)c3-c3n[nH]c(=O)o3)C35CC(CN3C4=O)C5)sc12 [Compound 300, (R)-5-(4-(7-((5-fluoro-4-methoxy-2,3-dihydro-1H-inden-1-yl)amino)-5-methylthieno[2,3-c]pyridin-2-yl)-2-(3-fluorophenethyl)-5-oxo-8,9-dihydro-5H,7H-8,9a-methanopyrido[2,3-a]pyrrolizin-3-yl)-1,3,4-oxadiazol-2(3H)-one]"
12900 pM,101000 pM,O=C(NCc1ccc(F)c(F)c1)c1ccc(-c2c3c(nc(CCc4ccc(F)cc4)c2-c2noc(=O)[nH]2)[C@@H]2CCCN2C3=O)s1 [Compound 101]
51 pM,318 pM,"O=C1c2c(nc(CCc3ccc(F)cc3)c(-c3n[nH]c(=O)o3)c2-c2cc3ccnc(N[C@@H]4CCc5c(F)cc(F)cc54)c3s2)C23CC(CN12)C3 [Compound 279, (R)-5-(4-(7-((4,6-difluoro-2,3-dihydro-1H-inden-1-yl)amino)thieno[2,3-c]pyridin-2-yl)-2-(4-fluorophenethyl)-5-oxo-5,7,8,9-tetrahydro-8,9a-methanopyrido[2,3-a]pyrrolizin-3-yl)-1,3,4-oxadiazol-2(3H)-one]"
19.1 pM,1570 pM,"COc1c(F)ccc2c1CC(F)(F)[C@H]2Nc1nccc2cc(-c3c4c(nc(CCc5ccc(F)cc5)c3-c3n[nH]c(=O)o3)C35CC(CN3C4=O)C5)sc12 [Compound 283, (S)-5-(2-(4-fluorophenethyl)-5-oxo-4-(7-((2,2,5-trifluoro-4-methoxy-2,3-dihydro-1H-inden-1-yl)amino)thieno[2,3-c]pyridin-2-yl)-5,7,8,9-tetrahydro-8,9a-methanopyrido[2,3-a]pyrrolizin-3-yl)-1,3,4-oxadiazol-2(3H)-one]"
539 pM,6730 pM,"N#Cc1cc2c(cc1F)[C@H](Nc1nccc3cc(-c4c5c(nc(CCc6ccc(F)cc6)c4-c4n[nH]c(=O)o4)[C@@H]4CCCN4C5=O)sc13)CC2 [Compound 165, (R)-6-fluoro-1-((2-((S)-2-(4-fluorophenethyl)-5-oxo-3-(5-oxo-4,5-dihydro-1,3,4-oxadiazol-2-yl)-7,8,9,9a-tetrahydro-5H-pyrido[2,3-a]pyrrolizin-4-yl)thieno[2,3-c]pyridin-7-yl)amino)-2,3-dihydro-1H-indene-5-carbonitrile]"
10200 pM,254000 pM,"O=C1c2c(nc(CCc3ccc(F)cc3)c(-c3n[nH]c(=O)o3)c2-c2cc3ccnc(N[C@@H]4COc5ccccc54)c3s2)[C@@H]2CCCN12 [Compound 169, 5-((S)-4-(7-(((S)-2,3-dihydrobenzofuran-3-yl)amino)thieno[2,3-c]pyridin-2-yl)-2-(4-fluorophenethyl)-5-oxo-7,8,9,9a-tetrahydro-5H-pyrido[2,3-a]pyrrolizin-3-yl)-1,3,4-oxadiazol-2(3H)-one]"
114 pM,935 pM,"O=C1c2c(nc(CCc3ccc(F)cc3)c(-c3n[nH]c(=O)o3)c2-c2cc3ccnc(N[C@@H]4CCc5cc(F)ccc54)c3s2)C23CC(CN12)C3 [Compound 280, (R)-5-(4-(7-((5-fluoro-2,3-dihydro-1H-inden-1-yl)amino)thieno[2,3-c]pyridin-2-yl)-2-(4-fluorophenethyl)-5-oxo-5,7,8,9-tetrahydro-8,9a-methanopyrido[2,3-a]pyrrolizin-3-yl)-1,3,4-oxadiazol-2(3H)-one]"
247 pM,7400 pM,"COc1nccc2c1CC[C@H]2Nc1nccc2cc(-c3c4c(nc(CCc5ccc(F)cc5)c3-c3n[nH]c(=O)o3)C35CC(CN3C4=O)C5)sc12 [Compound 264, (R)-5-(2-(4-fluorophenethyl)-4-(7-((1-methoxy-6,7-dihydro-5H-cyclopenta[c]pyridin-5-yl)amino)thieno[2,3-c]pyridin-2-yl)-5-oxo-8,9-dihydro-5H,7H-8,9a-methanopyrido[2,3-a]pyrrolizin-3-yl)-1,3,4-oxadiazol-2(3H)-one]"
247 pM,3590 pM,"O=C1c2c(nc(CCc3ccc(F)cc3)c(-c3n[nH]c(=O)o3)c2-c2cc3ccnc(N[C@@H]4CCc5cc(F)ccc54)c3s2)[C@@H]2CCCN12 [Compound 184, 5-((S)-4-(7-(((R)-5-fluoro-2,3-dihydro-1H-inden-1-yl)amino)thieno[2,3-c]pyridin-2-yl)-2-(4-fluorophenethyl)-5-oxo-7,8,9,9a-tetrahydro-5H-pyrido[2,3-a]pyrrolizin-3-yl)-1,3,4-oxadiazol-2(3H)-one]"
406 pM,7230 pM,"COc1cccc2c1CC[C@H]2Nc1nc(C(F)(F)F)cc2cc(-c3c4c(nc(CCc5ccc(F)cc5)c3-c3n[nH]c(=O)o3)[C@@H]3CCCN3C4=O)sc12 [Compound 215, 5-((S)-2-(4-fluorophenethyl)-4-(7-(((R)-4-methoxy-2,3-dihydro-1H-inden-1-yl)amino)-5-(trifluoromethyl)thieno[2,3-c]pyridin-2-yl)-5-oxo-7,8,9,9a-tetrahydro-5H-pyrido[2,3-a]pyrrolizin-3-yl)-1,3,4-oxadiazol-2(3H)-one]"
724 pM,12200 pM,"CC(c1ccc(C#N)cn1)n1c(=O)oc2cc(-c3c4c(nc(CCc5ccc(F)cc5)c3-c3n[nH]c(=O)o3)[C@@H]3CCCN3C4=O)ccc21 (stereo partly drawn) [Compound 160, 6-[1-[6-[(9aS)-2-[2-(4-fluorophenyl)ethyl]-5-oxo-3-(2-oxo-3H-1,3,4-oxadiazol-5-yl)-7,8,9,9a-tetrahydropyrido[2,3-a]pyrrolizin-4-yl]-2-oxo-1,3-benzoxazol-3-yl]ethyl]pyridine-3-carbonitrile]"
682 pM,37200 pM,"CC1(C)Oc2cc(-c3c4c(nc(CCc5ccc(F)cc5)c3-c3n[nH]c(=O)o3)[C@@H]3CCCN3C4=O)ccc2N(Cc2ccc(F)cn2)C1=O [Compound 186, (S)-7-(2-(4-fluorophenethyl)-5-oxo-3-(5-oxo-4,5-dihydro-1,3,4-oxadiazol-2-yl)-7,8,9,9a-tetrahydro-5H-pyrido[2,3-a]pyrrolizin-4-yl)-4-((5-fluoropyridin-2-yl)methyl)-2,2-dimethyl-2H-benzo[b][1,4]oxazin-3(4H)-one]"
